According to patent publication US20030162803A1, “Anhydrovinblastine for the treatment of cancer” (priority 1997, published 2003):
Counter-ions that a name gives are not always drawn. Like-named read-outs stand apart in the source and are kept apart here.

Columns and labels:
[1] = tested on: MCF7 human breast carcinoma; test: MTT cytotoxicity assay, MCF7; assay type: cell-based; settings: read-out: Drug Ic50
Procedure: (§1) Cytotoxicity experiments on AHVB were performed as direct comparisons with vincristine and Navelbine™ in order to assess its inherent antineoplastic profile against a variety of tumor cell types relative to other relevant vinca alkaloids. The cytotoxicity of AHVB was investigated in vitro against a panel of tumor cell lines of varying lineage in order to determine the specificity of its antitumor activity with respect to cell type.
(§2) Standard dose response cytotoxicity assays (R. Mosmass, J. Immunol. Meth., 65:55-64, 1983) were utilized to determine the IC50 (drug concentration required to induce 50% inhibition of tumor cell growth) for vincristine, Navelbine™ and AHVB. The indicated cell lines were obtained from either the ATCC or NCI tumor repository and were cultured in tissue culture media by standard techniques well known to those skilled in the art, prior to dilution to a defined cell concentration required for the studies in 96 well plates.
(§3) A wide range of drug concentrations were exposed to tumor cells growing at log phase in 96-well microtitre plates. Cell concentrations depended on the cell line as well as the length of time to be cultured. […] MCF7 cells were plated at a concentration of 7,000 and 1,500 cells per well for studies lasting 3 and 7 days, respectively. H460 cells were plated at a concentration of 2,500 and 1,000 cells per well for studies lasting 3 and 7 days, respectively. K562 cells were plated at a concentration of 1,500 and 10,000 cells per well for studies lasting 1 and 3 days, respectively. LS180 cells were plated at a concentration of 5,000 and 20,00 cells per well for studies lasting 3 and 7 days, respectively.
(§4) Subsequently the plates were incubated for the indicated time period. At specified times, cells were washed and subsequently exposed to the dye inclusion marker MTT (3-(4,5-dimethylthiazol-2-yl)-2,5-diphenyl tetrazolium), which accumulated into viable cells. MTT was added to the cells at a final concentration of 50 μg per well. After a 4 hour incubation, the cells were washed free of media and unreacted MTT, prior to addition of DMSO which was required to solubilize the insoluble formazan precipitate that formed in viable cells. After the sample was mixed through repeated pipetting, the coloured product was measured using a plate reader operating at 570 nm. The absorbance values obtained for cells cultured in the absence of drug was assumed to represent 100% viability.

[2] = tested on: H460 human non-small cell lung carcinoma; test: MTT cytotoxicity assay, H460; assay type: cell-based; settings: read-out: Drug Ic50
Procedure: as §1, §2, §3, §4

[3] = tested on: K562 human erythroleukaemia; test: MTT cytotoxicity assay, K562; assay type: cell-based; settings: read-out: Drug Ic50
Procedure: as §1, §2, §3, §4

[4] = tested on: LS180 human colon carcinoma; test: MTT cytotoxicity assay, LS180; assay type: cell-based; settings: read-out: Drug Ic50
Procedure: as §1, §2, §3, §4

[5] = Range-finding acute (14 day) single dose toxicity in healthy male Nb rats; assay type: in vivo; settings: single intraperitoneal injection; for subacutely toxic dosage (highest dose which allowed survival of all animals in a group): 14 day
Procedure: Range-finding acute (14 day), single dose toxicity studies were performed in healthy male Nb rats in order to determine the maximum tolerated dose of vincristine sulfate, Navelbine T and AHVB when administered as a single, intraperitoneal injection in these rodents (see Table 2).
To this end, healthy non-tumor bearing male Nb rats (weight range 333-399 grams) were divided in groups of 3 animals. Each group was used to test one drug at one dosage. The volumes within which the drugs were administered depended on the concentration of the drug solution (in saline) and the weight of the animals, and ranged from 0.1-1.0 ml. Saline was used as a control. The highest dose of each drug which allowed survival of all animals in a group (3 out of 3) was taken as the subacutely toxic dosage for the drug, i.e. 0.7 mg/kg for vincristine, 2.0 mg/kg for Navelbine™ and 3.0 mg/kg for AHVB.
The health of the animals was assessed by daily weight measurements in addition to behavioural indications of stress. Animals continued to be monitored throughout the complete 14 day study period. Animals were euthanized in the event of signs of severe stress or weight loss in excess of 20%. All animals were necropsied at the end of the study period or at the time of premature euthanasia.

[6] = tested on: Nb2-U17 lymphoma transplants; test: Rat U17 lymphoma model (Nb2-U17 tumor transplants); assay type: in vivo, Nb rats; settings: for anti-tumor potency compared: 50% of individual maximum tolerated doses, FIG. 3
Description: The U17 cell line was originally derived from a transplantable malignant lymphoma that arose spontaneously in male Noble rats (British Columbia Cancer Research Centre Joint Animal Breeding Facility with parents obtained from the National Institutes of Health, Bethesda, Md.). The cell line is prolactin dependent and can readily be cultured in vitro. U17 derived solid tumors are generated by subcutaneous injection (via the trocar method) of a small (2 mm^2) piece of tumor tissue obtained from male Noble rat. Tumor tissue used for the implants arose two weeks after injection of 5×10^6 U17 cells (from culture) subcutaneously in the nape of the neck. For assessing the anti-tumor activity of AHVB, tumor bearing animals (2-4 gm tumors) were given a single treatment of drug and tumor size was measured as a function of time following treatment. The anti-tumor activity was assessed at a series of different doses in order to determine the maximum therapeutic dose of AHVB. Comparative studies between vincristine, vinblastine and AHVB were performed. For these studies anti-tumor activity was determined at the maximum therapeutic dose of each drug.
Cultures of the non-metastatic, pre-T Nb2 lymphoma line originally developed at The University of British Columbia and designated Nb2-U17 (Anticancer Research 14:2485-2492, 1994), and are available from the British Columbia Cancer Research Centre. Cells from exponentially growing Nb2-U17 suspension cultures were injected subcutaneously into methoxyflurane-anaesthetised, mature male Nb rats (5 rats; 310-380 grams; 5×10^6 cells/rat in 1 ml of culture medium) at the nape of the neck using a 1.5″ 20-gauge needle. […]
The oncolytic effects of each of the three drugs were assessed at a subacutely toxic dose, determined for each drug in preliminary studies using non-tumor-bearing, mature male Nb rats, i.e. 3.0, 2.0 and 0.7 mg/kg for AHVB, Navelbine™ and vincristine, respectively as illustrated in FIG. 2. In addition, each drug was assessed at 50% and 25% of its subacutely toxic dose. […]

[7] = tested on: P388 lymphocytic leukaemia; test: MTT cytotoxicity assay, P388; settings: for IC50: read-out: Drug Ic50
Procedure: Standard dose response cytotoxicity assays (R. Mosmass, J. Immunol. Meth., 65:55-64, 1983) were utilized to determine the IC50 (drug concentration required to induce 50% inhibition of tumor cell growth) for vincristine, Navelbine™ and AHVB.
A wide range of drug concentrations were exposed to tumor cells growing at log phase in 96-well microtitre plates. Cell concentrations depended on the cell line as well as the length of time to be cultured. Typically, P388 cells were plated at a concentration of 30,000, 2,000 and 750 cells per well for studies lasting 1, 3 and 7 days, respectively. MCF7 cells were plated at a concentration of 7,000 and 1,500 cells per well for studies lasting 3 and 7 days, respectively. H460 cells were plated at a concentration of 2,500 and 1,000 cells per well for studies lasting 3 and 7 days, respectively. K562 cells were plated at a concentration of 1,500 and 10,000 cells per well for studies lasting 1 and 3 days, respectively. LS180 cells were plated at a concentration of 5,000 and 20,00 cells per well for studies lasting 3 and 7 days, respectively. After plating all cell lines were incubated (CO2 incubator at 37° C., 5% CO2) for 24 hours prior to addition of the cytotoxic agent (See Table 1).
as §4
A cytotoxicity curve was generated to estimate the IC50 of vincristine, Navelbine™ and AHVB in the murine P388 cell line (see FIG. 5). In this study, P388 cells derived from an ascitic tumor grown in BDF1 were first separated from red cells employing Ficoll-Paque. Isolated white cells were washed twice then placed in serum containing tissue culture media (1×10^5 cells per ml of RPMI 1640 supplemented with L-glutamine, penicillin, streptomycin and 10% fetal bovine serum) and cultured for 2 hours. All non-adherent cells were collected and that cell population was defined as P388 cells and used for cytotoxicity assays 24 hours later.

[8] = Homo sapiens, 72 h, MCF7, exposure time 3 days
[9] = Homo sapiens, 168 h, MCF7, exposure time 7 days
[10] = Homo sapiens, NCI-H460, 72 h, H460, exposure time 3 days
[11] = Homo sapiens, NCI-H460, 168 h, H460, exposure time 7 days
[12] = Homo sapiens, 24 h, K562, exposure time 1 day
[13] = Homo sapiens, 72 h, K562, exposure time 3 days
[14] = Homo sapiens, 72 h, LS180, exposure time 3 days
[15] = Homo sapiens, 168 h, LS180, exposure time 7 days

SMILES	Mortality (surviving rats/injected rats) ([5]; 10 mg/kg)	subacutely toxic dosage (highest dose which allowed survival of all animals in a group) [5] [mg/kg]	anti-tumor potency compared [6]	IC50 [1, 8] [nM]	IC50 [1, 9] [nM]	IC50 [2, 10] [nM]	IC50 [2, 11] [nM]	IC50 [3, 12] [nM]	IC50 [3, 13] [nM]	IC50 [4, 14] [nM]	IC50 [4, 15] [nM]	IC50 ([7]; Mus musculus, P388, 24 h) [nM]	IC50 ([7]; Mus musculus, P388, 72 h) [nM]	IC50 ([7]; Mus musculus, P388, 168 h) [nM]	also measured
CCC1=C[C@H]2CN(CCc3c([nH]c4ccccc34)[C@@](C(=O)OC)(c3cc4c(cc3OC)N(C)[C@H]3[C@@](O)(C(=O)OC)[C@H](OC(C)=O)[C@]5(CC)C=CCN6CC[C@]43[C@@H]65)C2)C1 [AHVB, 3′,4′-anhydrovinblastine]	0 surviving rats/injected rats	3.0	less potent than vincristine												IC50 ([1]; MCF7, exposure time 3 days): > 2500 nM; IC50 ([1]; MCF7, exposure time 7 days): 31.3 ± 12.4 nM; IC50 ([2]; H460, exposure time 3 days): 10 nM; IC50 ([2]; H460, exposure time 7 days): 5 nM; IC50 ([3]; K562, exposure time 1 day): > 50 nM; IC50 ([3]; K562, exposure time 3 days): 18.8 ± 8.8 nM; IC50 ([4]; LS180, exposure time 3 days): > 50 nM; IC50 ([4]; LS180, exposure time 7 days): 17.5 nM; Mortality (surviving rats/injected rats) ([5]; 4.4 mg/kg): 0 surviving rats/injected rats; fold less active on per molar basis than vincristine and Navelbine ([7]; in vitro tests, Table I and FIG. 5): 10 to 15 fold; IC50 ([7]; P388, exposure time 1 day): 140 ± 53 nM; IC50 ([7]; P388, exposure time 3 days): 15 ± 8.7 nM; IC50 ([7]; P388, exposure time 7 days): 20 nM
CCC1=C[C@@H]2CN(C1)Cc1c([nH]c3ccccc13)[C@@](C(=O)OC)(c1cc3c(cc1OC)N(C)[C@H]1[C@@](O)(C(=O)OC)[C@H](OC(C)=O)[C@]4(CC)C=CCN5CC[C@]31[C@@H]54)C2 [Navelbine, 3′,4′-didehydro-4′-deoxy-C′-norvincaleukoblastine-di-L-tartrate]	0 surviving rats/injected rats	2.0	less potent than AHVB	> 2500	2.6 ± 1.6	0.3	> 0.5	> 50	2.5 ± 2.2	> 50	0.5	20	0.7 ± 0.3	2.5	Mortality (surviving rats/injected rats) ([5]; 5 mg/kg): 0 surviving rats/injected rats
CC[C@]1(O)C[C@H]2CN(CCc3c([nH]c4ccccc34)[C@@](C(=O)OC)(c3cc4c(cc3OC)N(C=O)[C@H]3[C@@](O)(C(=O)OC)[C@H](OC(C)=O)[C@]5(CC)C=CCN6CC[C@]43[C@@H]65)C2)C1 [Vincristine, Sulfate of 22-oxovincaleukoblastine]		0.7		> 2500	2.6 ± 1.6	3.5	2.5	> 50	1.5 ± 0.4	> 50	1.5	11 ± 3.6	1 ± 0.3	2	Mortality (surviving rats/injected rats) ([5]; 1 mg/kg): 0 surviving rats/injected rats; recurrence of tumors ([6]; single intraperitoneal subacutely toxic dose, FIG. 2): not observed
